Test results published in PubChem BioAssay AID1963846 (Molecular Pharmacology Branch, DTP, NCI, 2024).

System: 454973-116-R2-J3-PDC complex spheroid viability
Assay: Anticancer human tumor 454973-116-R2-J3-PDC patient-derived pancreatic carcinoma cell line growth inhibition [POLQ]
Settings: for IC50: curve of first compound; for viability, T/C: stronger effect = lower value; active = viability on the fitted dose curve at most 10% of control; inactive = the rest
Description: Multicellular complex tumor spheroid response to Polymerase (POL) inhibitors (novobiocin, ART-558, RP6685) in combination with a variety of drugs and investigational agents in selected tumor cell lines
The POL inhibitors (novobiocin, ART-558, and RP6685) were evaluated both individually and in combination with standard of care and investigational anticancer small molecules within a complex spheroid model of solid tumors. . Complex spheroids include a stromal component modeled by human endothelial cells (HUVEC) and fibroblasts modeled by human mesenchymal stem cells (MSCs). The concentration ranges selected for each drug and investigational agent were based upon clinically achievable concentrations if the clinical Cmax of the agent was known.
Compounds. The drugs and investigational agents: novobiocin (NSC847541), ART-558 (NSC835418), RP-6685 (NSC848927), peposertib (NSC802822), ceralasertib (NSC780249), elimusertib (NSC800525), camonsertib (NSC841442), AZD-1390 (NSC803789), olaparib (NSC753686), talazoparib (NSC767125), rucaparib (NSC756644), sotorasib (NSC818433), MRTX-1133 (NSC836407), SN-38 (NSC673596), topotecan (NSC609699), epotoside (NSC141540), doxorubicin (NSC123127), gemcitabine (NSC613327), 5-fluorouracil (NSC19893), paclitaxel (NSC125973), vemurafenib (NSC761431), MSA-2 (NSC828583), SN-011 (NSC837082), adavosertib (NSC754352), prexasertib (NSC758257), carboplatin (NSC241240) and oxaliplatin (NSC266046), were obtained from the National Cancer Institute (NCI) Developmental Therapeutics Program Chemical Repository (21). The FDA-approved anticancer drug set is available from the Developmental Therapeutics Program at https://dtp.cancer.gov/organization/dscb/obtaining/. […] The stock solutions were prepared in dimethyl sulfoxide (DMSO, Sigma-Aldrich, St. Louis, MO, cat. D2650), except for the platinum compounds which were prepared in saline (Quality Biological, Gaithersburg, MD, cat. 114-055-101), at 800-fold the tested concentration and stored at -70 degrees C prior to their use. All drugs and investigational agents were tested over a range starting from a high concentration at or near the clinical Cmax and decreasing in half-log increments. If the clinical Cmax for an agent had not been determined, the highest concentration tested was 10 microM, except for SN-38, which was tested at a high concentration of 1 microM.
Cell Culture. All cells were maintained in an incubator at 37 degrees C and 5% CO2 with 95% humidity. The PDC lines were cultured according to standard operating procedures established by the NCI PDMR (https://pdmr.cancer.gov). Table 3 of the manuscript, lists the cell lines along with the number of the three cell types plated to form the mct-spheroids and media for tumor cell growth. After thawing, all PDC lines, except 997537-175-T-J1-PDC and 415267-285-R-J2-PDC, were cultured in Matrigel-coated flasks prepared with a working solution of 1X Ham's F-12 nutrient mix, without supplementation (Thermo Fisher Scientific, cat. 11765054), 100 U/mL penicillin-streptomycin (Thermo Fisher Scientific, cat. 15140122), and 2.5% Matrigel (Corning Inc., Corning, NY, cat. 354248) for the first three passages. The two PDC lines 997537-175-T-J1-PDC and 415267-285-R-J2-PDC were cultured on uncoated flasks. The 857933-349-R-J2-PDC line was cultured in 6C/Colon 1B media containing advanced DMEM/F-12 (Thermo Fisher Scientific, cat. 12634028), 10 mM HEPES (Thermo Fisher Scientific, cat. 15630080), 1X GlutaMAX supplement (Thermo Fisher Scientific, cat. 35050061), 0.1 mg/mL primocin (InvivoGen, San Diego, CA, cat. ant-pm-2), 10% defined fetal bovine serum, heat inactivated (HyClone Laboratories Inc., Logan, UT, cat. SH30070.03HI), 50% L-WRN conditioned media (ATCC, cat. CRL-3276), 1.25 mM N-Acetyl-L-cysteine (Sigma-Aldrich, cat. A9165), 10 mM nicotinamide (Sigma-Aldrich, cat. N0636), 1X B-27 supplement (Thermo Fisher Scientific, cat. 17504044), 1X N-2 supplement (Thermo Fisher Scientific, cat. […]

[1] = second compound 0.0316 µM, first compound 0.0316 µM
[2] = second compound 0.0316 µM, first compound 0.1 µM
[3] = second compound 0.0316 µM, first compound 0.316 µM
[4] = second compound 0.0316 µM, first compound 1 µM
[5] = second compound 0.0316 µM, first compound 3.16 µM
[6] = second compound 0.0316 µM, first compound 10 µM
[7] = second compound 0.1 µM, first compound 0.0316 µM
[8] = second compound 0.1 µM, first compound 0.1 µM
[9] = second compound 0.1 µM, first compound 0.316 µM
[10] = second compound 0.1 µM, first compound 1 µM
[11] = second compound 0.1 µM, first compound 3.16 µM
[12] = second compound 0.1 µM, first compound 10 µM
[13] = second compound 0.316 µM, first compound 0.0316 µM
[14] = second compound 0.316 µM, first compound 0.1 µM
[15] = second compound 0.316 µM, first compound 0.316 µM
[16] = second compound 0.316 µM, first compound 1 µM
[17] = second compound 0.316 µM, first compound 3.16 µM
[18] = second compound 0.316 µM, first compound 10 µM
[19] = second compound 1 µM, first compound 0.0316 µM
[20] = second compound 1 µM, first compound 0.1 µM
[21] = second compound 1 µM, first compound 0.316 µM
[22] = second compound 1 µM, first compound 1 µM
[23] = second compound 1 µM, first compound 3.16 µM
[24] = second compound 1 µM, first compound 10 µM
[25] = second compound 3.16 µM, first compound 0.0316 µM
[26] = second compound 3.16 µM, first compound 0.1 µM
[27] = second compound 3.16 µM, first compound 0.316 µM
[28] = second compound 3.16 µM, first compound 1 µM
[29] = second compound 3.16 µM, first compound 3.16 µM
[30] = second compound 3.16 µM, first compound 10 µM
[31] = second compound 10 µM, first compound 0.0316 µM
[32] = second compound 10 µM, first compound 0.1 µM
[33] = second compound 10 µM, first compound 0.316 µM
[34] = second compound 10 µM, first compound 1 µM
[35] = second compound 10 µM, first compound 3.16 µM
[36] = second compound 10 µM, first compound 10 µM
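Also: spheroids exposed to drugs for seven days before measurement.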
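For viability, T/C in this document: percent viability relative to DMSO vehicle control wells taken as 100%.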

CC(C)n1c(=O)n(C)c2cnc3cc(F)c(-c4ccc(OCCCN5CCCCC5)nc4)cc3c21 + Nc1ccc(C#CCN(C(=O)Cc2ncc(C(F)(F)F)cc2C(F)(F)F)c2ccc(F)cc2)nn1
inactive: viability, T/C [1] 101% | viability, T/C [2] 96% | viability, T/C [3] 101% | viability, T/C [4] 96.7% | viability, T/C [5] 102% | viability, T/C [6] 75.8% | viability, T/C [7] 99.3% | viability, T/C [8] 100% | viability, T/C [9] 103% | viability, T/C [10] 115% | viability, T/C [11] 99.6% | viability, T/C [12] 76.1% | viability, T/C [13] 102% | viability, T/C [14] 102% | viability, T/C [15] 117% | viability, T/C [16] 103% | viability, T/C [17] 101% | viability, T/C [18] 83.8% | viability, T/C [19] 114% | viability, T/C [20] 106% | viability, T/C [21] 108% | viability, T/C [22] 114% | viability, T/C [23] 106% | viability, T/C [24] 74.7% | viability, T/C [25] 111% | viability, T/C [26] 113% | viability, T/C [27] 105% | viability, T/C [28] 114% | viability, T/C [29] 101% | viability, T/C [30] 83.8% | viability, T/C [31] 123% | viability, T/C [32] 107% | viability, T/C [33] 114% | viability, T/C [34] 114% | viability, T/C [35] 104% | viability, T/C [36] 76.9%
> 10 µM: IC50 (second compound 0.0316 µM) | IC50 (second compound 0.1 µM) | IC50 (second compound 0.316 µM) | IC50 (second compound 1 µM) | IC50 (second compound 3.16 µM) | IC50 (second compound 10 µM)

CCc1cc2c(N3CCc4c(cc(Cn5ccnc5)cc4-c4cn(C)nc4C(F)(F)F)C3=O)ccnc2c(OC)n1 + Nc1ccc(C#CCN(C(=O)Cc2ncc(C(F)(F)F)cc2C(F)(F)F)c2ccc(F)cc2)nn1
> 10 µM: IC50 (second compound 0.0316 µM) | IC50 (second compound 0.1 µM) | IC50 (second compound 0.316 µM) | IC50 (second compound 1 µM) | IC50 (second compound 3.16 µM) | IC50 (second compound 10 µM)
inactive: viability, T/C [1] 119% | viability, T/C [2] 91.5% | viability, T/C [3] 84.1% | viability, T/C [4] 78.7% | viability, T/C [5] 72.4% | viability, T/C [6] 63.3% | viability, T/C [7] 99% | viability, T/C [8] 88.2% | viability, T/C [9] 80.8% | viability, T/C [10] 84.6% | viability, T/C [11] 72.3% | viability, T/C [12] 62.6% | viability, T/C [13] 93% | viability, T/C [14] 95.1% | viability, T/C [15] 90.3% | viability, T/C [16] 72.6% | viability, T/C [17] 78% | viability, T/C [18] 55.8% | viability, T/C [19] 112% | viability, T/C [20] 92.3% | viability, T/C [21] 93.3% | viability, T/C [22] 76.5% | viability, T/C [23] 76.6% | viability, T/C [24] 58.1% | viability, T/C [25] 101% | viability, T/C [26] 99.2% | viability, T/C [27] 93.6% | viability, T/C [28] 82.4% | viability, T/C [29] 68.3% | viability, T/C [30] 60.7% | viability, T/C [31] 111% | viability, T/C [32] 114% | viability, T/C [33] 89.1% | viability, T/C [34] 84.7% | viability, T/C [35] 81.8% | viability, T/C [36] 58.5%

COc1ccc([C@@H](O)c2cc(-c3ncnc4cc(N5CCOCC5)ccc34)c(F)cc2Cl)nn1 + Nc1ccc(C#CCN(C(=O)Cc2ncc(C(F)(F)F)cc2C(F)(F)F)c2ccc(F)cc2)nn1
inactive: viability, T/C [1] 107% | viability, T/C [2] 107% | viability, T/C [3] 96.9% | viability, T/C [4] 86.9% | viability, T/C [5] 66.3% | viability, T/C [6] 53.5% | viability, T/C [7] 106% | viability, T/C [8] 96.1% | viability, T/C [9] 108% | viability, T/C [10] 90.3% | viability, T/C [11] 69.2% | viability, T/C [12] 49.8% | viability, T/C [13] 107% | viability, T/C [14] 107% | viability, T/C [15] 102% | viability, T/C [16] 85.8% | viability, T/C [17] 73.9% | viability, T/C [18] 52.4% | viability, T/C [19] 107% | viability, T/C [20] 106% | viability, T/C [21] 104% | viability, T/C [22] 92.3% | viability, T/C [23] 79.4% | viability, T/C [24] 59.9% | viability, T/C [25] 102% | viability, T/C [26] 107% | viability, T/C [27] 116% | viability, T/C [28] 93.9% | viability, T/C [29] 68.5% | viability, T/C [30] 56.5% | viability, T/C [31] 120% | viability, T/C [32] 119% | viability, T/C [33] 118% | viability, T/C [34] 93.7% | viability, T/C [35] 80.3% | viability, T/C [36] 64.4%
> 10 µM: IC50 (second compound 0.0316 µM) | IC50 (second compound 0.1 µM) | IC50 (second compound 0.316 µM) | IC50 (second compound 1 µM) | IC50 (second compound 3.16 µM) | IC50 (second compound 10 µM)

O=c1[nH]cc(F)c(=O)[nH]1 + Nc1ccc(C#CCN(C(=O)Cc2ncc(C(F)(F)F)cc2C(F)(F)F)c2ccc(F)cc2)nn1
1.31 µM: IC50 (second compound 1 µM)
1.55 µM: IC50 (second compound 3.16 µM) | IC50 (second compound 10 µM)
1.85 µM: IC50 (second compound 0.316 µM)
inactive: viability, T/C [1] 108% | viability, T/C [2] 116% | viability, T/C [3] 102% | viability, T/C [4] 67% | viability, T/C [5] 28.6% | viability, T/C [6] 33.2% | viability, T/C [7] 105% | viability, T/C [8] 103% | viability, T/C [9] 97.4% | viability, T/C [10] 69.2% | viability, T/C [11] 27.2% | viability, T/C [12] 30.2% | viability, T/C [13] 107% | viability, T/C [14] 106% | viability, T/C [15] 103% | viability, T/C [16] 71% | viability, T/C [17] 29.2% | viability, T/C [18] 33.9% | viability, T/C [19] 108% | viability, T/C [20] 102% | viability, T/C [21] 109% | viability, T/C [22] 56.1% | viability, T/C [23] 28.1% | viability, T/C [24] 32.1% | viability, T/C [25] 120% | viability, T/C [26] 117% | viability, T/C [27] 106% | viability, T/C [28] 63.5% | viability, T/C [29] 25.4% | viability, T/C [30] 32.5% | viability, T/C [31] 119% | viability, T/C [32] 118% | viability, T/C [33] 115% | viability, T/C [34] 63.7% | viability, T/C [35] 24.3% | viability, T/C [36] 31.1%
1.74 µM: IC50 (second compound 0.1 µM)
1.73 µM: IC50 (second compound 0.0316 µM)
